Results published in patent US20260199362A1, “VITAMIN B2 FOR USE IN IMPROVING GUT HEALTH” (DSM IP Assets B.V., priority 2022, published 2026).

System: Lactobacillus rhamnosus GG (Lactobacillus rhamnosus DSM 32550)
Assay: Short-term batch-fermentation colon model (M-SHIME) with qPCR of Lactobacillus rhamnosus GG level
Assay type: cell-based
Procedure: A short-term batch-fermentation experiment was carried out by ProDigest, consisting of a colonic incubation of a representative dose of a selected vitamin with a representative bacterial inoculum under simulated conditions for the proximal large intestine. In the current experiment, the bacterial inocula were derived from fresh fecal samples of six different healthy adult donors. […]
In this study, the Lactobacillus rhamnosus GG equivalent Lactobacillus rhamnosus DSM 32550 (Biocare Copenhagen) was added to the colon model containing the donor samples, alone or in combination with vitamin B2 (see Table 1). After 48 h of incubation, the abundance of the added strain was analyzed using primers that are specific for Lactobacillus rhamnosus GG and its equivalent Lactobacillus rhamnosus DSM 32550. […]
qPCR was performed on putative phage tail protein gene (NCBI reference NC_013198) to monitor the level of the supplemented probiotic Lactobacillus rhamnosus GG strain within the gut microbiome, as described previously (Brandt, Alatossava (2003)-Specific identification of certain probiotic Lactobacillus rhamnosus strains with PCR primers based on phage-related sequences). Samples were analyzed from the mucus environment following 48 h of incubation. […]

Cc1cc2nc3c(=O)[nH]c(=O)nc-3n(C[C@H](O)[C@H](O)[C@H](O)CO)c2cc1C [vitamin B2, riboflavin]
copies of the Lactobacillus rhamnosus GG specific putative phage tail protein gene relative to control (Lactobacillus rhamnosus GG alone) (vitamin B2 0.01667 g/L co-supplemented with L. rhamnosus GG 1*10^9 CFU, mucus environment, 48 h colonic incubation, fecal inocula of six healthy human donors, average, qPCR): around three | levels of Lactobacillus rhamnosus GG in the colon model, as compared to the respective control (vitamin B2 0.01667 g/L co-supplemented with L. rhamnosus GG, 48 h, six human donors, paired t-test, p<0.05): significantly increased
